Data from patent US10640495B2, “Heterocycle derivatives having TrkA inhibitory activity” (Shionogi & Co., Ltd., priority 2015, dated 2020).

Each molecule was assayed against human TrkA (Homo sapiens (Human), UniProt P04629) (assay: Human TrkA inhibition assay (Test Example 2)). Conditions: Table 152, human TrkA inhibition; read-out: IC50_nM.
Assay type: biochemical
Method in brief: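 Recombinant TrkA (1 nmol/L) was preincubated 15 min at room temperature with compound in HEPES/MgCl2/DTT buffer, then reacted with FL-peptide 27 (1.5 μmol/L) and ATP (500 μmol/L) for 120 min at 37 °C. After EDTA stop, substrate phosphorylation was read by microfluidic mobility shift. IC50 came from logistic regression over 3-fold dilution series.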

Chain of human TrkA (P04629 440-796): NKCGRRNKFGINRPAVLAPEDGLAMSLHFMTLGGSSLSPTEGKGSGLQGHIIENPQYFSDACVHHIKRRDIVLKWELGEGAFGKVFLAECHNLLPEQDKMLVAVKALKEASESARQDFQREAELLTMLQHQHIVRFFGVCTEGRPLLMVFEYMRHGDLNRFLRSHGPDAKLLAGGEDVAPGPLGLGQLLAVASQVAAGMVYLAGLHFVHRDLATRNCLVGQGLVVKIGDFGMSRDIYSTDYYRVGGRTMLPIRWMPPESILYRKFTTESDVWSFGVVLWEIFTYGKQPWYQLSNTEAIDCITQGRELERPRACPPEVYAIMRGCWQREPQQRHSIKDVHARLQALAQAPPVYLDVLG

COCCC1C[C@@H](NC(=O)Nc2c(C)c(C3=CCNCC3)nn2-c2ccccc2)[C@H](c2ccccc2)O1 (stereo partly shown) [Compound I-21] and COCCN1C[C@@H](NC(=O)Nc2c(C)c(-c3ccc(C(=O)O)cc3)nn2-c2ccccc2)[C@H](c2ccc(F)c(F)c2)O1 (racemic) [Compound I-35] cannot be ordered by IC50: under 100 nM for the first, under 100 nM for the second.

COCCN1C[C@@H](NC(=O)Nc2c(C)c(-c3cnc4nc(C)nn4c3)nn2-c2ccccc2)[C@H](c2ccc(F)c(F)c2)O1 (racemic) [Compound I-43] showed an IC50 of under 100 nM.

Same assay, conditions: Table 153, human TrkA inhibition; read-out: IC50

COCCN1C[C@@H](NC(=O)Nc2c(C)c(-c3cnc4cccnc4c3)nn2-c2ccccc2)[C@H](c2ccc(F)c(F)c2)O1 (racemic) [Compound I-152] and COCCN1C[C@@H](NC(=O)Nc2c(C)c(-c3cnc4c(c3)ncn4C)nn2-c2ccccc2)[C@H](c2ccc(F)c(F)c2)O1 (racemic) [Compound I-72] cannot be ordered by IC50: under 100 nM for the first, under 100 nM for the second.

COCCN1C[C@@H](NC(=O)Nc2c(C)c(-c3cnc(OC)c(C(=O)NC4CCOCC4)c3)nn2-c2ccccc2)[C@H](c2ccnc(F)c2)O1 (racemic) [Compound I-111] and CNC(=O)c1cc(-c2nn(-c3ccccc3)c(NC(=O)N[C@@H]3CN(CCOC)O[C@H]3c3ccc(F)cc3)c2C)cn(C)c1=O (racemic) [Compound I-138] cannot be ordered by IC50: under 100 nM for the first, under 100 nM for the second.

COCCN1C[C@@H](NC(=O)Nc2c(C)c(OCC(C)(C)O)nn2-c2ccccc2)[C@H](c2ccc(F)c(F)c2)O1 (racemic) [Compound I-61] and COCC[C@@H]1C[C@@H](NC(=O)Nc2c(C)c(C3=CCN(C(=O)OC(C)(C)C)CC3)nn2-c2ccccc2)[C@H](c2ccc(F)c(F)c2)O1 (racemic) [Compound I-54] cannot be ordered by IC50: under 100 nM for the first, under 100 nM for the second.

Same assay, conditions: Table 154, human TrkA inhibition; read-out: IC50

COCCN1C[C@@H](NC(=O)Nc2c(C)c(-c3cc(C(N)=O)c(=O)n(C)n3)nn2-c2ccccc2)[C@H](c2ccnc(F)c2)O1 (racemic) [Compound I-301] and COCCN1C[C@@H](NC(=O)Nc2c(C)c(-c3ccnc(C(=O)NOC)c3)nn2-c2ccccc2)[C@H](c2ccc(F)c(F)c2)O1 (racemic) [Compound I-198] cannot be ordered by IC50: under 100 nM for the first, under 100 nM for the second.

COCCN1C[C@@H](NC(=O)Nc2c(C)c(-c3cnc4c(c3)c(=O)n(C)n4C)nn2-c2ccccc2)[C@H](c2ccc(F)c(F)c2)O1 [Compound I-216] and COCCN1C[C@@H](NC(=O)Nc2c(C)c(-c3cnc4c(c3)nc(C(N)=O)n4C)nn2-c2ccccc2)[C@H](c2ccc(F)c(F)c2)O1 [Compound I-221] cannot be ordered by IC50: under 100 nM for the first, under 100 nM for the second.

COCC[C@@H]1C[C@@H](NC(=O)Nc2c(C)c(-c3cc(C)c(=O)n(C)c3)nn2-c2ccccc2)[C@H](c2ccnc(F)c2)O1 [Compound I-288] and COCCN1C[C@@H](NC(=O)Nc2c(C)c(-c3cnc4c(c3)ncn4CC(F)(F)F)nn2-c2ccccc2)[C@H](c2ccnc(F)c2)O1 (racemic) [Compound I-240] cannot be ordered by IC50: under 100 nM for the first, under 100 nM for the second.

Compared with COCCC1C[C@@H](NC(=O)Nc2c(C)c(OCC(C)(C)O)nn2-c2ccccc2)[C@H](c2ccccc2)O1 (stereo partly shown) [Compound I-295], COCCN1C[C@@H](NC(=O)Nc2c(C)c(-c3cnc(N4CC(O)C4)nc3)nn2-c2ccccc2)[C@H](c2ccc(F)cc2)O1 (racemic) [Compound I-265] is lower in IC50: 100 to 1000 nM for the first, under 100 nM for the second.

COCCN1C[C@@H](NC(=O)Nc2c(C)c(-c3cc(-c4cn(Cc5ccc(OC)cc5)nn4)c(=O)n(C)c3)nn2-c2ccccc2)[C@H](c2ccc(F)c(F)c2)O1 [Compound I-277] and COCCN1C[C@@H](NC(=O)Nc2c(C)c(-c3cnc(N4CC(OC(=O)c5ccccc5)C4)nc3)nn2-c2ccccc2)[C@H](c2cc(F)nc(F)c2)O1 (racemic) [Compound I-286] cannot be ordered by IC50: under 100 nM for the first, under 100 nM for the second.

COCCN1C[C@@H](NC(=O)Nc2c(C)c(-c3cnc(OC)c(C(N)=O)c3)nn2-c2ccc(F)cc2)[C@H](c2ccnc(F)c2)O1 (racemic) [Compound I-238] was tested, and the IC50 was under 100 nM.

Same assay, conditions: Table 155, human TrkA inhibition; read-out: IC50

COCC[C@@H]1C[C@@H](NC(=O)Nc2c(C)c(-c3cnc4c(c3)c(=O)n(C)n4C)nn2-c2ccccc2)[C@H](c2ccnc(F)c2)O1 [Compound I-330] and COCCN1C[C@@H](NC(=O)Nc2c(C)c(-c3cnc4c(c3)c(N3CCCC3)nn4C)nn2-c2ccccc2)[C@H](c2ccnc(F)c2)O1 (racemic) [Compound I-491] cannot be ordered by IC50: under 100 nM for the first, under 100 nM for the second.

First: COCCN1C[C@H](NC(=O)Nc2c(C)c(-c3cnc(C)nc3)nn2-c2ccccc2)[C@@H](c2cc(F)nc(F)c2)O1 [Compound I-362]
Second: COCCN1C[C@@H](NC(=O)Nc2c(C)c(-c3cnc(OC4COC4)nc3)nn2-c2ccccc2)[C@H](c2ccnc(F)c2)O1 (racemic) [Compound I-465]
The IC50 of the first is higher: over 1000 nM for the first, under 100 nM for the second.

COCCN1C[C@@H](NC(=O)Nc2c(C)c(-c3cnc4c(c3)c(CO[Si](C)(C)C(C)(C)C)nn4C)nn2-c2ccccc2)[C@H](c2ccnc(F)c2)O1 (racemic) [Compound I-424] and COCCN1C[C@@H](NC(=O)Nc2c(C)c(-c3cnc4c(c3)OCCO4)nn2-c2ccccc2)[C@H](c2ccnc(F)c2)O1 (racemic) [Compound I-427] cannot be ordered by IC50: under 100 nM for the first, under 100 nM for the second.

COCCN1C[C@@H](NC(=O)Nc2c(C)c(-c3cnc(OC4CCN(C)CC4)nc3)nn2-c2ccccc2)[C@H](c2ccnc(F)c2)O1 (racemic) [Compound I-381] and COCCN1C[C@@H](NC(=O)Nc2c(C)c(-c3ccn4ccnc4c3)nn2-c2ccccc2)[C@H](c2ccnc(F)c2)O1 (racemic) [Compound I-471] cannot be ordered by IC50: under 100 nM for the first, under 100 nM for the second.

COCCN1C[C@@H](NC(=O)Nc2c(C)c(N3CCN(C)C(=O)C3)nn2-c2ccccc2)[C@H](c2ccc(F)cc2)O1 [Compound I-345] and COCCN1C[C@@H](NC(=O)Nc2c(C)c(-c3ccc4c(c3)NC(=O)CO4)nn2-c2ccccc2)[C@H](c2ccnc(F)c2)O1 (racemic) [Compound I-364] cannot be ordered by IC50: under 100 nM for the first, under 100 nM for the second.

First: COCCN1C[C@@H](NC(=O)Nc2c(C)c(-c3cnn(C)c3)nn2CCN(C)C)[C@H](c2ccc(F)c(F)c2)O1 [Compound I-494]
Second: CNC(=O)c1cc(-c2nn(-c3ccccc3)c(NC(=O)N[C@@H]3CNO[C@H]3c3ccc(F)c(F)c3)c2C)cnc1OC (racemic) [Compound I-474]
The IC50 of the first is higher: over 1000 nM for the first, 100 to 1000 nM for the second. The second is the more potent here.

COCCN1C[C@@H](NC(=O)Nc2c(C)c(OCC3CN(C(=O)OC(C)(C)C)CCO3)nn2-c2ccccc2)[C@H](c2ccnc(F)c2)O1 (stereo partly shown) [Compound I-499] and COCCN1C[C@@H](NC(=O)Nc2c(C)c(OCc3cc(OC)ccn3)nn2-c2ccccc2)[C@H](c2ccnc(F)c2)O1 (racemic) [Compound I-501] cannot be ordered by IC50: under 100 nM for the first, under 100 nM for the second.

Same assay, conditions: Table 156, human TrkA inhibition; read-out: IC50

CCOc1nn(-c2ccccc2)c(NC(=O)N[C@@H]2CN(CC)O[C@H]2c2ccc(F)cc2)c1C (racemic) [Compound I-541] and COCCN1C[C@@H](NC(=O)Nc2c(C)c(OCC3CNCCO3)nn2-c2ccccc2)[C@H](c2ccc(F)c(F)c2)O1 (single isomer, unassigned) [Compound I-575] cannot be ordered by IC50: under 100 nM for the first, under 100 nM for the second.

COCCN1C[C@@H](NC(=O)Nc2c(C)c(-c3ccc(N4CC(OC)C4)nc3)nn2-c2ccccc2)[C@H](c2ccc(F)c(F)c2)O1 [Compound I-558] and COc1ncc(-c2nn(-c3ccccc3)c(NC(=O)N[C@@H]3CN(C(C)C)O[C@H]3c3ccc(F)c(F)c3)c2C)cn1 (racemic) [Compound I-527] cannot be ordered by IC50: under 100 nM for the first, under 100 nM for the second.

Same assay, conditions: Table 157, human TrkA inhibition; read-out: IC50

COCCN1C[C@@H](NC(=O)Nc2c(C)c(-c3cnc(OC)c(COC(C)=O)c3)nn2-c2ccccc2)[C@H](c2ccc(F)c(F)c2)O1 [Compound I-636] and CNC(=O)COc1nn(-c2ccccc2)c(NC(=O)N[C@@H]2CN(CCOC)O[C@H]2c2ccnc(F)c2)c1C (racemic) [Compound I-634] cannot be ordered by IC50: under 100 nM for the first, under 100 nM for the second.

First: CCN1C[C@@H](NC(=O)Nc2c(C)c(OC3CN(C)C3)nn2-c2ccccc2)[C@H](c2ccc(F)c(F)c2)O1 (racemic) [Compound I-632]
Second: CCN1C[C@@H](NC(=O)Nc2c(C)c(OCC3CCN(C(=O)COC)CC3)nn2-c2ccccc2)[C@H](c2ccc(F)c(F)c2)O1 (racemic) [Compound I-608]
The IC50 of the first is higher: 100 to 1000 nM for the first, under 100 nM for the second. The second is the more potent here.

COCCN1C[C@@H](NC(=O)Nc2c(Br)c(-c3cnc(OC)nc3)nn2-c2ccccc2)[C@H](c2ccnc(F)c2)O1 [Compound I-680] and COCCN1C[C@@H](NC(=O)Nc2c(C)c(-c3cnc(N4CC[C@H](OC)C4)nc3)nn2-c2ccccc2)[C@H](c2ccnc(F)c2)O1 [Compound I-584] cannot be ordered by IC50: under 100 nM for the first, under 100 nM for the second.

Cc1c(OCC2CCN(C)CC2)nn(-c2ccccc2)c1NC(=O)N[C@@H]1CN(CC2CC2)O[C@H]1c1ccc(F)c(F)c1 (racemic) [Compound I-653] and CCN1C[C@@H](NC(=O)Nc2c(C)c(-c3ccc4nccn4c3)nn2-c2ccccc2)[C@H](c2ccc(F)c(F)c2)O1 (racemic) [Compound I-624] cannot be ordered by IC50: under 100 nM for the first, under 100 nM for the second.

Same assay, conditions: human TrkA 1 nmol/L, ATP 500 μmol/L, 120 min at 37° C.; read-out: IC50 values (TrkA phosphorylation inhibition)

Point of comparison: COCCN1C[C@@H](NC(=O)Nc2c(C)c(-c3cnn(C)c3)nn2-c2ccccc2)[C@H](c2ccc(F)c(F)c2)N1 (racemic) [Compound I-10], IC50 170 nM. Against it:
- COCCN1C[C@@H](NC(=O)Nc2c(Cl)c(-c3cnc(OC)nc3)nn2-c2ccccc2)[C@H](c2ccnc(F)c2)O1 (racemic) [Compound I-674] — 29-fold lower, 5.8 nM
- COCCN1C[C@@H](NC(=O)Nc2c(C)c(-c3ccnc(C(=O)NOC)c3)nn2-c2ccccc2)[C@H](c2cnc(F)c(F)c2)O1 [Compound I-233] — 110-fold lower, 1.5 nM
- CNC(=O)c1cc(-c2nn(-c3ccccc3)c(NC(=O)N[C@@H]3CN(CCOC)O[C@H]3c3cnc(F)c(F)c3)c2C)cnc1OC (racemic) [Compound I-73] — 140-fold lower, 1.2 nM
- COCCN1C[C@@H](NC(=O)Nc2c(C)c(N3CCN(C)C(=O)C3)nn2-c2ccccc2)[C@H](c2ccc(F)c(F)c2)O1 [Compound I-344] — 180-fold lower, 0.97 nM
- COCCN1C[C@@H](NC(=O)Nc2c(C)c(C3=CCN(C(C)=O)CC3)nn2-c2ccccc2)[C@H](c2ccc(F)c(F)c2)O1 (racemic) [Compound I-31] — 220-fold lower, 0.78 nM
